{
  "source": "paper doi:10.1101/675579v1",
  "about": "“Oncoprotein GT198 is a direct target of taxol” (biorxiv, 2019)",
  "type_in_all_cases": "binding",
  "key": {"[1]": {"molecular_target": "T1, GT198 DBD fragment 126-217 (Homo sapiens, UniProt Q9P2W1)", "T1 construct": "gene PSMC3IP", "T1 sequence (Q9P2W1 126-217)": "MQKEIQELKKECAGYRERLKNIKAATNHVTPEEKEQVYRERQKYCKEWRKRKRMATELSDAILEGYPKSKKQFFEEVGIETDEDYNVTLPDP", "assay": "competition with Oregon green-taxol on protein-coated plates, fluorescence"}, "[2]": {"molecular_target": "T1, GT198 DBD fragment 126-217", "assay": "competition with biotinylated ssDNA on protein-coated plates, streptavidin-HRP chemiluminescence"}, "[3]": {"molecular_target": "T2, GT198 (wild type full length, His-tagged) (Homo sapiens, UniProt Q9P2W1)", "T2 construct": "gene PSMC3IP; full length aa 1-217, N-terminal His tag kept, E. coli BL21(DE3)pLysS, Ni-NTA; homodimer", "T2 sequence (Q9P2W1 1-217)": "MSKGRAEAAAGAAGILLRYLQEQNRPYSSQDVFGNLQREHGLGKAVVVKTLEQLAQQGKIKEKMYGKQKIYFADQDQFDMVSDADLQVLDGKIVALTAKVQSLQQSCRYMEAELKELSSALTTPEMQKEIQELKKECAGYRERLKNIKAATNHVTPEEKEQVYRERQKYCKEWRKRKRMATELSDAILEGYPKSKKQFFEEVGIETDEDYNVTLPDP", "assay": "competition with Oregon green-taxol on protein-coated plates, fluorescence"}, "[4]": {"molecular_target": "T2, GT198 (wild type full length, His-tagged)", "assay": "competition with biotinylated ssDNA on protein-coated plates, streptavidin-HRP chemiluminescence"}},
  "data": [
    {"smiles": "CC(=O)O[C@H]1C(=O)[C@@]2(C)[C@H]([C@H](OC(=O)c3ccccc3)[C@]3(O)C[C@H](OC(=O)[C@H](O)[C@@H](NC(=O)c4ccccc4)c4ccccc4)C(C)=C1C3(C)C)[C@]1(OC(C)=O)CO[C@@H]1C[C@@H]2O", "note": "[taxol]", "values": [
      {"measurement": "IC50", "setting": "[1]", "value": 15.2, "unit": "nM"},
      {"measurement": "IC50", "setting": "[2]", "value": 7.3, "unit": "nM"},
      {"measurement": "IC50", "setting": "[3]", "value": 8.8, "unit": "nM"},
      {"measurement": "IC50", "setting": "[4]", "value": 8.6, "unit": "nM"}
    ]}
  ]
}
